Tests used:
Type in all cases: biochemical
[1] = target: T1, PKR-R510Q (Homo sapiens, UniProt P30613, R510Q); assay: Enzyme assay, kinetic parameters (Vmax, PEP Km)
Method: (§1) Tests were conducted in the presence and absence of fructose-1,6-bisphosphate (FBP), a known allosteric activator of PKR.

[2] = target: T2, wt-PKR (Homo sapiens, UniProt P30613); assay: Enzyme assay, kinetic parameters (Vmax, PEP Km)
Method: as §1

[3] = target: T2, wt-PKR; assay: Enzyme assay, activation at different compound concentrations (rate of ATP formation); details: PEP concentrations at or below Km
[4] = target: T1, PKR-R510Q; assay: as above; details: PEP concentrations at or below Km
[5] = 2 μM Compound 1, in the presence or absence of FBP
[6] = 2 μM Compound 1, presence and absence of FBP

T1 sequence (P30613 whole entry R510Q): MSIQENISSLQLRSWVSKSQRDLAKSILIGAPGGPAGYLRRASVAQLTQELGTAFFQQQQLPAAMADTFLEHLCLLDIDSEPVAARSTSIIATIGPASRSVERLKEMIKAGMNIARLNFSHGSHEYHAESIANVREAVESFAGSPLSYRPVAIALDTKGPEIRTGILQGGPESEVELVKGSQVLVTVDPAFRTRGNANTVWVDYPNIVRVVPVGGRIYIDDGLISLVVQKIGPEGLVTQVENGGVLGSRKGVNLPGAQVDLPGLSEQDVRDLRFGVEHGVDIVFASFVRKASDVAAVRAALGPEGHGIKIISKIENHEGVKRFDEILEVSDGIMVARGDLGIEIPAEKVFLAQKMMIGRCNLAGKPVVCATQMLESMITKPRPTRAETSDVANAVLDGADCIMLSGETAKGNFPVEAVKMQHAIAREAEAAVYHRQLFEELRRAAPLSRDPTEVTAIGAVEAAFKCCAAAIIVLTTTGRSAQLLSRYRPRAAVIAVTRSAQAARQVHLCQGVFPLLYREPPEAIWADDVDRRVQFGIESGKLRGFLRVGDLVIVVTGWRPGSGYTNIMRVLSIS
T2 sequence (P30613 whole entry): as the sequence (P30613 whole entry R510Q) above, with Q510R counted along it

For `O=C([C@H](CO)c1ccccc1)N1CC2=C(C1)CN(S(=O)(=O)c1cnc3c(c1)OCCO3)C2` (single isomer, unassigned) [Compound 1], the “reduction of PEP Km” value [1, 5] was about 2 fold, the “effect on Vmax” value [1, 6] was “no effect to a modest increase” and the “reduction of PEP Km” value [2, 5] was about 2 fold. For the same compound, the “effect on Vmax” value [2, 6] was “no effect to a modest increase”, the “Maximum-fold Activation” value [3] was under 2.0 fold and the “Maximum-fold Activation” value [4] was under 3.0 fold.
